Where “and” joins values, the source holds several entries; their conditions need not be identical. Equal values may be shown once.
What follows are compounds tested on P. falciparum 3D7 growth, pLDH absorbance (assay: P. falciparum 3D7 growth inhibition, dose response, strain 3D7 (AID 2305)).

Row | Structure (SMILES) | IC50
1 | COc1cc(CN2CCC(N3CCc4cc(NC(=O)c5cc(C)on5)ccc43)C2)ccc1F (stereo not drawn) | 610 nM
2 | CC=CC(=O)N1CCN(c2nccc(-c3ccc(C(C)(C)C)cc3)n2)CC1 | 1080 nM
3 | CCOc1cc(C(=O)NCC2CCN(CC3CCCCC3)CC2)ccc1-c1nc2ccc(Cl)cc2[nH]1 | 560 nM
4 | CS(=O)(=O)NCCCNCc1cccc(-c2cccc(-c3nc4ccc(F)cc4[nH]3)c2)c1 | 940 nM
5 | CCN(CC)CCN(Cc1ccc(-c2ccc(C(F)(F)F)cc2)cc1)C(=O)Cn1c(CCc2ccc(F)c(F)c2)nc(=O)c2ccccc21 | 1580 nM
6 | CCCCCOc1ccc(C(O)C(CCC(CN2CCCCCC2)C(O)c2ccc(OCCCCC)cc2)CN2CCCCCC2)cc1 (stereo not drawn) | 770 nM
7 | CC(C)(C)CC(C)(C)c1ccc(O)c(CNC2CCCCC2)c1 | 60 nM
8 | Cc1cnc(NCC2CCCCC2)nc1N[C@@H](CC(C)C)C(=O)Nc1ccccc1 | 870 nM
9 | O=C(NCC1CCN(Cc2cccc(C(F)(F)F)c2)C1)c1cc(-c2cccc(Cl)c2)cs1 (stereo not drawn) | 800 nM
10 | CC(C)CNCc1cccc(-c2ccc(CN(C(=O)NCCc3ccccc3)C3CCN(Cc4ccccc4)CC3)cc2)c1 | 760 nM
11 | COc1cc2[nH]c(-c3ccc(O)cc3)c(C)c(=O)c2c(OC)c1OC | 720 nM
12 | COc1ccc(C=CC(=O)NC2CCC(CN3CCC(c4c[nH]c5ccccc45)CC3)CC2)cc1OC (stereo not drawn) | 840 nM and 800 nM
13 | CC(C)N(CCOc1ccc2c(c1)N(C(=O)Nc1ccc(Cl)c(Cl)c1)CC2)C(C)C | 370 nM
14 | CC(=O)Nc1ccc(CN2CCN(C(c3ccc(F)cc3)c3ccc(F)cc3)CC2)cc1 | 830 nM
15 | CCc1cn2c3c(cc(C(=O)N[C@@H](Cc4ccccc4)[C@H](O)CNC4CCCCC4)cc13)N(CC)S(=O)(=O)CC2 | 30 nM
16 | COc1cccc(-c2ccc(C(=O)NC3CCN(Cc4ccc(N(C)C)cc4)CC3)s2)c1 | 1390 nM
17 | N#Cc1ccc(CCNc2nccc(-c3cccc(CN4CCNCC4)c3)n2)cc1 | 1250 nM
18 | O=S(=O)(NCCN1CCCC1)c1cccc(-c2cccc(CNCCc3cccs3)c2)c1 | 750 nM
19 | O=C(Nc1ccc(OC2CCN(Cc3ccc(F)cc3)CC2)c(Cl)c1)c1cccs1 | 320 nM
20 | CCC(CC)NCc1c(O)ccc2c(CNC(CC)CC)c(O)ccc12 | 390 nM
21 | O=C(Nc1ccc(-c2nc3ccccc3[nH]2)cc1)c1ccc([N+](=O)[O-])s1 | 250 nM
22 | Oc1ccc(-c2cncc(NCc3ccc(F)c(F)c3)c2)cc1 | 770 nM
23 | COc1ccc(Cl)cc1N1CCN(CCCNC(=O)c2ccc(-c3nc4cc5ccccc5cc4[nH]3)c(F)c2)CC1 | 800 nM
24 | CCOC(=O)CCCN1C(=O)CN=C(c2ccccc2)c2cc(Cl)ccc21 | 780 nM

Row | Structure (SMILES) | IC50
25 | CC(C)C[C@H](Nc1ccnc(NCC2CCCCC2)n1)C(=O)NCCc1ccccc1 | 750 nM
26 | Cc1ccc(-c2cnc(N)c3cc(-c4ccnc(N)n4)ccc23)cc1 | 810 nM
27 | CCC(O)(C#Cc1c(C)nc(N)nc1N)CC | 640 nM
28 | O=C(c1cc(-c2ccco2)[nH]n1)N1CCN(S(=O)(=O)c2ccc(Br)cc2)CC1 | 500 nM
29 | Cc1[nH]c2ccccc2c1C1=CCN(CCCCCC23CCCc4cccc(c42)NC3=O)CC1 (stereo not drawn) | 250 nM
30 | CCc1ccc(NC(=O)C=NN=C(N)N)cc1 | 900 nM
31 | CCC(C)OC(=O)C1=C(C)NC2=C(C(=O)CC(c3ccc(OC)c(OC)c3)C2)C1c1cccc(O)c1 (stereo not drawn) | 190 nM
32 | C[C@@H]1CN(c2cccc3c2nc(-c2cncc(C#N)c2)n3CCNCc2ccccc2)C[C@H](C)O1 | 1220 nM
33 | CC(NCC(O)Cn1c2ccccc2c2ccccc21)c1ccccc1 (stereo not drawn) | 930 nM
34 | Cc1cc(N[C@@H](Cc2ccccc2)C(=O)NCCc2ccccc2)nc(NCCc2ccc(F)cc2)n1 | 660 nM
35 | Cc1ccc2c(OCCN3CCC(Cc4ccc5c(c4)NC(=O)CO5)CC3)cc(F)cc2n1 | 750 nM
36 | CCCCCN1CCC(NS(=O)(=O)c2cccc(C(=O)Nc3cccc(C(F)(F)F)c3)c2)C1 (stereo not drawn) | 830 nM
37 | CCOCCCNc1ncc(-c2ccsc2)c(-c2nc(C)cs2)n1 | 270 nM
38 | O=C(NCC1CCC(CNCCc2ccccc2)CC1)Nc1ccc(Cl)c(Cl)c1 (stereo not drawn) | 740 nM
39 | COc1c(C2CCN(CCCCNC(=O)c3ccc(-c4ccc(C#N)cc4)cc3)CC2)cc(Cl)c2c1CCCC2 | 780 nM
40 | COc1ccc(NC(=O)NC2CCN(CCCCCNC(=O)/C=C/c3ccc(Cl)c(Cl)c3)CC2)cc1 | 1010 nM
41 | Cc1cc(-c2cc(-c3ccc(OCCN(C)C)cc3)[nH]c2-c2ccc3c(c2)CCC3=NO)ccn1 | 870 nM
42 | O=C1CCCN1CCCNCc1cccc(-c2cccc(-c3nc4ccc(C(F)(F)F)cc4[nH]3)c2)c1 | 300 nM
43 | Fc1ccc2[nH]c3c(NCCCN4CCOCC4)ncnc3c2c1 | 710 nM
44 | Cc1cccc2[nH]c(-c3ccc(-c4cccc(CN5CCN(CCO)CC5)c4)cc3)nc12 | 730 nM
45 | Cc1ccnc(NC(=O)c2cc(-c3cccc([N+](=O)[O-])c3)nc3onc(C)c23)c1 | 890 nM
46 | CC1(C)CCC(C)(C)c2c1ccc(C1CCN(CCCCNC(=O)c3ccc(-c4ccc(C#N)cc4)cc3)CC1)c2O | 230 nM
47 | Cc1ccc(C(=O)Nc2cccc(-c3ccc(N4CCN(C)CC4)nn3)c2)cc1[N+](=O)[O-] | 330 nM
48 | O=C(Nc1ccc(Cl)cc1)Nc1cccc(-c2cc(CNCCc3ccccc3)oc2-c2ccncc2)c1 | 280 nM

Reference: PubChem BioAssay AID2305 (GlaxoSmithKline (GSK), 2010)
